Measured values: ChEMBL document CHEMBL4011610, “Design, synthesis and optimization of 7-substituted-pyrazolo[4,3-b]pyridine ALK5 (activin receptor-like kinase 5) inhibitors” (Bioorg Med Chem Lett, 2017)

Columns and labels:
TGF-beta receptor type-1 [1] = target: T1, TGF-beta receptor type-1 (Homo sapiens, UniProt P36897); assay: Inhibition of recombinant N-terminal GST tagged human ALK5 (200 to 503 residues) expressed in baculovirus expression system using FAM-NH2-KVLTQMGSPSIRCSS[PO4]VS peptide as substrate after 90 mins by LanthaScreen TR-FRET assay
T1 sequence (P36897 whole entry): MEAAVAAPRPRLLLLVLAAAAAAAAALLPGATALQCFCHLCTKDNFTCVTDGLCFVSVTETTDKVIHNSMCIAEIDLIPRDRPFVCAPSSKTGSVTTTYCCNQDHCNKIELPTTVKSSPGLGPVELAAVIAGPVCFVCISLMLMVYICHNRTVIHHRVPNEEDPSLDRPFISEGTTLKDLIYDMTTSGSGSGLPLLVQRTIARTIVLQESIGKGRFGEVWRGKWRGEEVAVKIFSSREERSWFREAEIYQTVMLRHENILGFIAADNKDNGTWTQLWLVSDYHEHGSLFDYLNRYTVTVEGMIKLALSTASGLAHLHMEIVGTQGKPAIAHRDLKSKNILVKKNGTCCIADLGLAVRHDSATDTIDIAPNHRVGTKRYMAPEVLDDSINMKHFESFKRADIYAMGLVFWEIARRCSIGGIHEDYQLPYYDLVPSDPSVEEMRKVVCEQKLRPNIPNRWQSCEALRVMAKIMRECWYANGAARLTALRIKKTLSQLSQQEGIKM

TGF-beta receptor type-1 [2] = target: T1, TGF-beta receptor type-1; assay: Inhibition of ALK5 (unknown origin) expressed in SBE-bla HEK293T cells assessed as decrease in TGFbeta1-induced Smad2/3 phosphorylation by beta lactamase reporter gene assay; format: cell-based
TGF-beta receptor type-1 [3] = target: T1, TGF-beta receptor type-1; assay: Inhibition of ALK5 in human Calu6 cells assessed as reduction in Smad2/3 phosphorylation; format: cell-based
[4] = Hepatic extraction ratio in human; format: ADME; conditions: read-out: ERH
[5] = Hepatic extraction ratio in rat; format: ADME; conditions: read-out: ERH
hERG (KCNH2) = hERG (KCNH2) (Homo sapiens, UniProt Q12809); assay: Inhibition of human ERG expressed in CHOK1 cells at 10 uM by automated whole cell patch clamp Qpatch method relative to control; format: cell-based; conditions: CHO-K1 cells expressing human ERG
[6] = Oral bioavailability in rat; format: ADME, organism-based; conditions: in vivo
Cytochrome P450 3A4 = Cytochrome P450 3A4 (Homo sapiens, UniProt P08684); assay: Inhibition of CYP3A4 (unknown origin); format: ADME
[7] = Clearance in rat; format: ADME; conditions: in vivo
Cytochrome P450 2C8 = target: T2, Cytochrome P450 2C8 (Homo sapiens, UniProt P10632); assay: Inhibition of CYP2C8 (unknown origin); format: ADME
T2 sequence (P10632 whole entry): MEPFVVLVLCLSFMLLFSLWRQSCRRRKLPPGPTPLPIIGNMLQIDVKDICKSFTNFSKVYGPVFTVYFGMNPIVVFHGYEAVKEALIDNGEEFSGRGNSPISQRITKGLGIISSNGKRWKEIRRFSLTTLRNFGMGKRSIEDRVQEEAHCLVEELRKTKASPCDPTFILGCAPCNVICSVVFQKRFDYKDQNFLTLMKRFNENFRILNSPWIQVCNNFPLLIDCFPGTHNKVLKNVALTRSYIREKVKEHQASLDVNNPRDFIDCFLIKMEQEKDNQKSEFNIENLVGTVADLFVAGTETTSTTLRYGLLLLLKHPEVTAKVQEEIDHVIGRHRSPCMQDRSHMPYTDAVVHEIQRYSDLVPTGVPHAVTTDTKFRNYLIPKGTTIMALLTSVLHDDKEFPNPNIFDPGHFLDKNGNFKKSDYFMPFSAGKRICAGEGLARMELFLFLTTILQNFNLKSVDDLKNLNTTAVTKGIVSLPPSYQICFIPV

[8] = Clearance in rat microsomes; format: ADME, Microsome
[9] = Clearance in human microsomes; format: ADME, Microsome

Sequence of Cytochrome P450 3A4 (P08684 whole entry): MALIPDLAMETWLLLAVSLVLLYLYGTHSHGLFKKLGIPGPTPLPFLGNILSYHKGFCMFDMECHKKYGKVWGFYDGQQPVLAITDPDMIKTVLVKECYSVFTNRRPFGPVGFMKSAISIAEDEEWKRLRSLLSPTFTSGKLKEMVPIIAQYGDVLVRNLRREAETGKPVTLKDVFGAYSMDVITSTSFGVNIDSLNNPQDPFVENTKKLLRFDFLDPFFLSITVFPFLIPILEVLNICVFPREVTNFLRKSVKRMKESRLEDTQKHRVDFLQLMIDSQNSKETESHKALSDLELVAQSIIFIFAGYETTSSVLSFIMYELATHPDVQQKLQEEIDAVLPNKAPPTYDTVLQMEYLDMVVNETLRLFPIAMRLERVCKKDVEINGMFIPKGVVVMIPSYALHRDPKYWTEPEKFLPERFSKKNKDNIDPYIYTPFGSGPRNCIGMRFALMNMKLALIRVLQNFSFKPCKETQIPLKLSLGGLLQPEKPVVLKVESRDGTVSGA
Sequence of hERG (KCNH2) (Q12809 whole entry): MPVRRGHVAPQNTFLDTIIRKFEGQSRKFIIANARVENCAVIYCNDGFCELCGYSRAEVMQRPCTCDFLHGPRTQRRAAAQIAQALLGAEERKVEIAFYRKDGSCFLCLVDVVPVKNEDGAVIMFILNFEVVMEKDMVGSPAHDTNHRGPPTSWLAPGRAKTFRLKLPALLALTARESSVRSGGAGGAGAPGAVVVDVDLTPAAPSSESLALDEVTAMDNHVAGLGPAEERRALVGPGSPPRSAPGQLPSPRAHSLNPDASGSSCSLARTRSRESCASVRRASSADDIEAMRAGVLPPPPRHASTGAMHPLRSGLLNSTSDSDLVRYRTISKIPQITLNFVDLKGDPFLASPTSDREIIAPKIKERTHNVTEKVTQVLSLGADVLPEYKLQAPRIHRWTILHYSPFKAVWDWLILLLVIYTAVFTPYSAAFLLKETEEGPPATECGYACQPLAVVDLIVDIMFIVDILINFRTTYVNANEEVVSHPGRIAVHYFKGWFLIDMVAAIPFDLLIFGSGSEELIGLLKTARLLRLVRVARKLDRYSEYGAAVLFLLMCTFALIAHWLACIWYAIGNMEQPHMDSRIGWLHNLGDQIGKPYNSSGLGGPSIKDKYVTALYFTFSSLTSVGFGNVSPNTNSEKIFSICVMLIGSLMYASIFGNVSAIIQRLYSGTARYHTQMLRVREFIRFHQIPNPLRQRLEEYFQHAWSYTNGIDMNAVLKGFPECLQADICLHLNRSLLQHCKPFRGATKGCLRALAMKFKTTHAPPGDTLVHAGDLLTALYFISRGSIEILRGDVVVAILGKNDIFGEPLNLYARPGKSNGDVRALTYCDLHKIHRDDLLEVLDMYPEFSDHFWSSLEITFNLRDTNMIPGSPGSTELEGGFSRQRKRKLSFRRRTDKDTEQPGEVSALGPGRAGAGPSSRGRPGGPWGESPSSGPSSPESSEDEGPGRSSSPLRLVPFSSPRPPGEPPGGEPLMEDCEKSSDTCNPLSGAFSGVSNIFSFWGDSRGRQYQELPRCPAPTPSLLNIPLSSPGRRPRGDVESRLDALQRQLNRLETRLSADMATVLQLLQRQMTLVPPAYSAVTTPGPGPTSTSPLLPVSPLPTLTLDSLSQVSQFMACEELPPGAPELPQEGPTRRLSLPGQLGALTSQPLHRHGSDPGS

SMILES: CNC(=O)n1ncc2nccc(Nc3ccnc(-c4cc(F)ccc4F)c3)c21
- IC50 (TGF-beta receptor type-1 [1]): 0.00251 µM
- EC50 (TGF-beta receptor type-1 [2]): 0.02 µM
- EC50 (TGF-beta receptor type-1 [3]): 0.126 µM
- hepatic extraction ratio [4]: 0.55
- hepatic extraction ratio [5]: 0.27

SMILES: CNC(=O)n1ncc2nccc(Nc3ccnc(-c4cc(Cl)ccc4F)c3)c21
- IC50 (TGF-beta receptor type-1 [1]): 0.00316 µM
- EC50 (TGF-beta receptor type-1 [2]): 0.0251 µM
- EC50 (TGF-beta receptor type-1 [3]): 0.0631 µM
- hepatic extraction ratio [4]: 0.57
- hepatic extraction ratio [5]: 0.31

SMILES: Cc1ccc(F)c(-c2cc(Nc3ccnc4cnn(C[C@@H](C)O)c34)c(C)cn2)n1
- IC50 (TGF-beta receptor type-1 [1]): 0.00794 µM
- EC50 (TGF-beta receptor type-1 [2]): 0.1 µM
- EC50 (TGF-beta receptor type-1 [3]): 0.501 µM
- inhibition at 10 µM (hERG (KCNH2)): 42%
- hepatic extraction ratio [4]: 0.3
- hepatic extraction ratio [5]: 0.3
- bioavailability [6]: 38%

SMILES: CCc1cnc(-c2cc(Cl)ccc2F)cc1Nc1ccnc2cccc(OC)c12
- IC50 (TGF-beta receptor type-1 [1]): 0.0251 µM

SMILES: NC(=O)Cn1cc2nccc(Nc3ccnc(-c4cc(Cl)ccc4F)c3)c2n1
- IC50 (TGF-beta receptor type-1 [1]): 0.0126 µM
- EC50 (TGF-beta receptor type-1 [2]): 0.1 µM
- inhibition at 10 µM (hERG (KCNH2)): 41 to 59%
- hepatic extraction ratio [4]: 0.52
- hepatic extraction ratio [5]: 0.54
- IC50 (Cytochrome P450 3A4): 12.6 µM

SMILES: Cc1cnc(-c2cc(Cl)ccc2F)cc1Nc1ccnc2cn(CC(N)=O)nc12
- EC50 (TGF-beta receptor type-1 [2]): 0.0126 µM
- EC50 (TGF-beta receptor type-1 [3]): 0.0316 µM
- inhibition at 10 µM (hERG (KCNH2)): 41 to 59%
- hepatic extraction ratio [4]: 0.46
- hepatic extraction ratio [5]: 0.56
- IC50 (Cytochrome P450 3A4): > 50.1 µM

SMILES: COc1cccc2nccc(Nc3ccnc(-c4cc(C)ccc4F)c3)c12
- IC50 (TGF-beta receptor type-1 [1]): 0.0251 µM

SMILES: Cc1cnc(-c2cc(Cl)ccc2F)cc1Nc1ccnc2cnn(CC(N)=O)c12
- EC50 (TGF-beta receptor type-1 [2]): 0.02 µM
- EC50 (TGF-beta receptor type-1 [3]): 0.0316 µM
- inhibition at 10 µM (hERG (KCNH2)): 41 to 59%
- hepatic extraction ratio [4]: 0.54
- hepatic extraction ratio [5]: 0.44
- IC50 (Cytochrome P450 3A4): 12.6 µM
- clearance [7]: 42 mL/min/kg
- bioavailability [6]: 71%

SMILES: Fc1ccc(Cl)cc1-c1cc(Nc2ccnc3cn[nH]c23)ccn1
- IC50 (TGF-beta receptor type-1 [1]): 0.00631 µM
- EC50 (TGF-beta receptor type-1 [2]): 0.0501 µM

SMILES: Cc1cccc(-c2cc(Nc3ccnc4cn[nH]c34)c(C)cn2)n1
- IC50 (TGF-beta receptor type-1 [1]): 0.00501 µM
- EC50 (TGF-beta receptor type-1 [2]): 0.0316 µM
- EC50 (TGF-beta receptor type-1 [3]): 0.2 µM

SMILES: CCNC(=O)n1ncc2nccc(Nc3ccnc(-c4cc(F)ccc4F)c3)c21
- EC50 (TGF-beta receptor type-1 [2]): 0.0316 µM
- EC50 (TGF-beta receptor type-1 [3]): 0.158 µM
- hepatic extraction ratio [4]: 0.53
- hepatic extraction ratio [5]: 0.29

SMILES: COc1cccc2nccc(Nc3ccnc(-c4cc(Cl)ccc4F)c3)c12
- IC50 (TGF-beta receptor type-1 [1]): 0.02 µM

SMILES: COc1cccc2nccc(Nc3cc(-c4cccc(Cl)c4)ncc3C)c12
- IC50 (TGF-beta receptor type-1 [1]): 0.0316 µM

SMILES: NC(=O)Cn1cc2nccc(Nc3ccnc(-c4cc(F)ccc4F)c3)c2n1
- EC50 (TGF-beta receptor type-1 [2]): 0.251 µM
- EC50 (TGF-beta receptor type-1 [3]): 1.58 µM
- hepatic extraction ratio [4]: 0.44
- hepatic extraction ratio [5]: 0.42

SMILES: CCn1cc2nccc(Nc3cc(-c4cc(C)ccc4F)ncc3C)c2n1
- IC50 (TGF-beta receptor type-1 [1]): 0.01 µM
- EC50 (TGF-beta receptor type-1 [2]): 0.0158 µM
- EC50 (TGF-beta receptor type-1 [3]): 0.158 µM

SMILES: Cc1cnc(-c2cc(Cl)ccc2F)cc1Nc1ccnc2cn[nH]c12
- IC50 (TGF-beta receptor type-1 [1]): 0.0158 µM
- EC50 (TGF-beta receptor type-1 [2]): 0.0316 µM
- hepatic extraction ratio [4]: 0.57
- hepatic extraction ratio [5]: 0.75
- IC50 (Cytochrome P450 2C8): 0.398 µM
- IC50 (Cytochrome P450 3A4): 3.16 µM

SMILES: Cc1cnc(-c2cc(F)ccc2F)cc1Nc1ccnc2cnn(CC(C)O)c12 (centres undefined)
- IC50 (TGF-beta receptor type-1 [1]): 0.00316 µM
- EC50 (TGF-beta receptor type-1 [2]): 0.00794 µM
- EC50 (TGF-beta receptor type-1 [3]): 0.02 µM
- hepatic extraction ratio [4]: 0.64
- hepatic extraction ratio [5]: 0.54

SMILES: COc1cccc2nccc(Nc3ccnc(-c4ccccc4)c3)c12
- IC50 (TGF-beta receptor type-1 [1]): 0.631 µM

SMILES: Cc1ccc(F)c(-c2cc(Nc3ccnc4cnn(CCO)c34)c(C)cn2)n1
- IC50 (TGF-beta receptor type-1 [1]): 0.0126 µM
- EC50 (TGF-beta receptor type-1 [2]): 0.02 µM

SMILES: Cc1cnc(-c2cc(F)ccc2F)cc1Nc1ccnc2cn(CC(C)O)nc12 (centres undefined)
- EC50 (TGF-beta receptor type-1 [2]): 0.126 µM
- EC50 (TGF-beta receptor type-1 [3]): 0.158 µM
- hepatic extraction ratio [4]: 0.79
- hepatic extraction ratio [5]: 0.68

SMILES: NC(=O)Cn1ncc2nccc(Nc3ccnc(-c4cc(F)ccc4F)c3)c21
- EC50 (TGF-beta receptor type-1 [2]): 0.2 µM
- EC50 (TGF-beta receptor type-1 [3]): 1.26 µM
- hepatic extraction ratio [4]: 0.53
- hepatic extraction ratio [5]: 0.57

SMILES: Cc1ccc(F)c(-c2cc(Nc3ccnc4cn[nH]c34)ccn2)c1
- IC50 (TGF-beta receptor type-1 [1]): 0.0158 µM

SMILES: CNC(=O)n1ncc2nccc(Nc3cc(-c4cc(Cl)ccc4F)ncc3C)c21
- IC50 (TGF-beta receptor type-1 [1]): 0.0158 µM
- EC50 (TGF-beta receptor type-1 [2]): 0.0316 µM
- hepatic extraction ratio [4]: 0.51
- hepatic extraction ratio [5]: 0.52

SMILES: COc1cccc2nccc(Nc3cc(-c4cc(Cl)ccc4F)ncc3C3CC3)c12
- IC50 (TGF-beta receptor type-1 [1]): 0.0501 µM

SMILES: Cc1ccc(F)c(-c2cc(Nc3ccnc4cn[nH]c34)c(C)cn2)n1
- IC50 (TGF-beta receptor type-1 [1]): 0.00251 µM
- EC50 (TGF-beta receptor type-1 [3]): 0.0316 µM
- hepatic extraction ratio [4]: 0.57
- hepatic extraction ratio [5]: 0.74
- IC50 (Cytochrome P450 2C8): 2.51 µM
- IC50 (Cytochrome P450 3A4): 6.31 µM

SMILES: Fc1ccc(Cl)cc1-c1cc(Nc2ccnc3cn(CC4CCNCC4)nc23)ccn1
- IC50 (TGF-beta receptor type-1 [1]): 0.1 µM
- EC50 (TGF-beta receptor type-1 [2]): 1 µM
- hepatic extraction ratio [4]: 0.36
- hepatic extraction ratio [5]: 0.16

SMILES: COc1cccc2nccc(Nc3ccnc(-c4cccc(Cl)c4)c3)c12
- IC50 (TGF-beta receptor type-1 [1]): 0.316 µM

SMILES: COc1cccc2nccc(Nc3cc(-c4cc(C)ccc4F)ncc3C)c12
- IC50 (TGF-beta receptor type-1 [1]): 0.0126 µM

SMILES: COc1cccc2nccc(Nc3ccnc(-c4nc(C)ccc4F)c3)c12
- IC50 (TGF-beta receptor type-1 [1]): 0.0398 µM

SMILES: Fc1ccc(Cl)cc1-c1cc(Nc2ccnc3cnn(CC4CCNCC4)c23)ccn1
- hepatic extraction ratio [4]: 0.91
- hepatic extraction ratio [5]: 0.93

SMILES: CNC(=O)n1ncc2nccc(Nc3cc(-c4cc(F)ccc4F)ncc3C)c21
- EC50 (TGF-beta receptor type-1 [2]): 0.0251 µM
- EC50 (TGF-beta receptor type-1 [3]): 0.02 µM
- hepatic extraction ratio [4]: < 0.23
- hepatic extraction ratio [5]: 0.2

SMILES: COc1cccc2nccc(Nc3cc(-c4cc(Cl)ccc4F)ncc3C)c12
- IC50 (TGF-beta receptor type-1 [1]): 0.0126 µM
- CLint scaled [8]: 302 mL/min/kg
- CLint scaled [9]: 86 mL/min/kg
- inhibition at 10 µM (hERG (KCNH2)): 94%

SMILES: Cc1cnc(-c2cc(F)ccc2F)cc1Nc1ccnc2cn[nH]c12
- EC50 (TGF-beta receptor type-1 [2]): 0.00794 µM
- EC50 (TGF-beta receptor type-1 [3]): 0.0316 µM
- hepatic extraction ratio [4]: 0.74
- hepatic extraction ratio [5]: 0.84
- IC50 (Cytochrome P450 2C8): 0.316 µM
- IC50 (Cytochrome P450 3A4): 1.58 µM
